Ends that are not written are not given here.
Key:
[1] = test system: MiaPaCa-2, Hu-Melanoma cells, BMRPA1.TUC-3 cells; test: Dose-response cytotoxicity by LDH release, cancer cells (FIG. 13 A-C); format: cell-based; conditions: 1-500 micrograms/ml; 30 min at 37° C.; tumor cells
Description: (§1) FIG. 13, graphs A through D, depict the results of dose-response experiments completed on three difference cancer cell samples and one normal primary human cell line to treatment in vitro with PNC-27 (from 1-500 micrograms/ml). The cancer cell lines were human pancreatic cancer, MiaPaCa-2 (upper left, A), Hu-Melanoma cells (upper right, B), and a rodent tumor cell line, i.e., pancreatic cancer BMRPA1.TUC-3 cells (lower left, C). As controls, cells from the same cell lines were tested in parallel with a control peptide, PNC-29, over the same range of peptide concentrations. As another control, cells from primary human Ag 13145 fibroblasts (lower right, D) were treated with the same doses of PNC-27 and PNC-29, respectively.
(§2) The results are plotted along with those for PNC-29, the negative control. […] The measurements of cytotoxicity were performed by assaying for LDH in the cell supernatant.
(§3) For the dose response experiments (n=3-5), 0.1 ml of each of the cells (70,000 cells/ml of culture medium) were seeded into each of the wells of 96-well TCD (7000 cells/well) and allowed to adhere overnight. […] The results were read at OD490 nm in an ELISA plate reader within 15 min of stopping the color development in the wells. The results were calculated as advised by the manufacturers guidelines (CytoTox 96 Non-radioactive Cytotoxicity Assay, Promega), and the data were expressed in % Cytotoxicity.

[2] = test system: human pancreatic cancer MIA PaCa-2 cells; test: Transmission electron microscopy of PNC-28-treated cells (FIG. 8); format: cell-based; conditions: treated for 10 minutes; 50 μg/ml
Description: FIG. 8 depicts a photograph taken during a Transmission Electron Microscopy study of human pancreatic cancer MIA PaCa-2 cells that had been treated for 10 minutes with PNC-28. […] The middle arrow depicts an area of the cell's plasma membrane that has erupted as a result of PNC-28 acting upon it. The bottom-most arrow depicts an area on the cell's plasma membrane that is discontinuous as a result of PNC-28 administration. From one or more of these areas emphasized with arrows, the cytoplasm will begin to leak from the cell, into the surrounding medium. Extrusion of much of the cells cytoplasmic content through such holes (pores) while the nuclear membrane was still intact was a frequent finding in these and other tumor cells when the incubation period with PNC-28 was extended. Magn. ×42,600.
Cells (1×10^6) were grown in 6-well dishes overnight then spent medium was removed, the cells were washed with PBS and treated at 37° C. with PNC-28 at 50 μg/ml in PBS. At different time points (5-30 min) during the PNC-28 treatment the cells were washed and fixed in 3% buffered paraformaldehyde supplemented with 0.01% glutaraldehyde for 1.5 h. After extensive washing, the cells were treated with glycine and NaBH4 as described above followed by 3 times washing in PBS. […]

non-cancerous cells = test: Untransformed cell lines and primary human cells incubated with peptide (FIG. 5); format: cell-based; conditions: Thirty microMolar; one day up to two weeks; normal rat pancreatic acinar cells, human breast cells, primary human fibroblasts, primary human keratinocytes, umbilical cord stem cells
Description: The experimental methods which yielded the data depicted in FIG. 5 are described in sufficient detail for those skilled in the art in the following publications: • Kanovsky, M., Raffo, A., Drew, L., Rosal, R., Do, T., Friedman, F. K., Rubinstein, P., Visser, I., Robinson, R., Brandt-Rauf, […]., Fine, R. L. and Pincus, M. R. (2001) Peptides from the Amino Terminal mdm-2 Binding Domain of p53, Designed from Conformational Analysis, Are Selectively Cytotoxic to Transformed Cells. Proc. Natl. Acad. Sci. USA 98, 12438-12443; • Do, T. N., Rosal, R. V., Drew, L., Raffo, […]., Pincus, M. R., Friedman, […]., Sidhu, G., Fine, R. L. and Brandt-Rauf, P. W. (2003) Preferential Induction of Necrosis in Human Breast Cancer Cells by a p53 Peptide Derived from the mdm-2 Binding Site. Oncogene 22, 1431-1444; and • Bowne, […]., Yadzi, E., Lou, […]., Harding, M., Bluth, M. H., Ng, M., Brandt-Rauf, […]. and Pincus, M. r. (2008) The Penetrating Sequence in the Anti-Cancer PNC-28 Peptide Causes Tumor Necrosis Rather than Apoptosis of Human Pancreatic Cancer Cells. Ann. Surg. Oncol., in press. Referring to FIG. 5, the table illustrates that the cancer treatment PNC-27, when administered to non-cancerous cells, has no effect. […]

[3] = test system: primary human Ag 13145 fibroblasts; test: Dose-response cytotoxicity by LDH release, normal fibroblasts (FIG. 13 D); format: cell-based; conditions: same dose range as applied to tumor cells (1-500 micrograms/ml); 30 min at 37° C.
Description: as §1, §2, §3

Row | Compound | cytotoxicity (LDH in the cell supernatant) [1] | plasma membrane change (TEM) [2] | effect on non-cancerous cells (non-cancerous cells) | cytotoxicity (LDH in the cell supernatant) [3] | IC50 (Cancer cells)
1 | CC[C@H](C)[C@H](NC(=O)[C@H](CCCNC(=N)N)NC(=O)[C@H](CCCCN)NC(=O)CNC(=O)[C@@H](NC(=O)[C@H](CO)NC(=O)[C@H](Cc1ccccc1)NC(=O)[C@@H]1CCCN1C(=O)[C@@H](N)CCSC)[C@@H](C)O)C(=O)N[C@@H](CCSC)C(=O)N[C@@H](CC(C)C)C(=O)NCC(=O)N[C@@H](CCC(=O)O)C(=O)N[C@@H](CCCCN)C(=O)N[C@@H](CCCCN)C(=O)N[C@@H](Cc1c[nH]c2ccccc12)C(=O)N[C@@H](CCCCN)C(=O)N[C@@H](CCSC)C(=O)N[C@@H](CCCNC(=N)N)C(=O)N[C@@H](CCCNC(=N)N)C(=O)N[C@@H](CC(N)=O)C(=O)N[C@@H](CCC(N)=O)C(=O)N[C@@H](Cc1ccccc1)C(=O)N[C@@H](Cc1c[nH]c2ccccc12)C(=O)N[C@H](C(=O)N[C@@H](CCCCN)C(=O)N[C@H](C(=O)N[C@@H](CCC(N)=O)C(=O)N[C@@H](CCCNC(=N)N)C(=O)NCC(=O)O)C(C)C)C(C)C [PNC-29, reference compound] | absence of any effect |  |  |  | 
2 | ETFSDLWKLLKKWKMRRNQFWVKVQRG (PNC-28) [p53 AA 17-26 attached to the membrane resident peptide (MRP)] |  | needle-shaped pore has formed in the cancer cell plasma membrane | no measurable effect |  | 
3 | PPLSQETFSDLWKLLKKWKMRRNQFWVKVQRG [PNC-27] | strong dose dependency |  |  | no effect | 125 µg/mL
